The values below come from publication PMC5411959, “Potential Antiosteoporotic Natural Product Lead Compounds That Inhibit 17β-Hydroxysteroid Dehydrogenase Type 2” (Journal of Natural Products, 2017).

One series deals with T1, human 17β-HSD1 (Homo sapiens, UniProt P14061).
T1 construct: expressed in transfected cells; host or cells: HEK-293 (ATCC), used as cell lysate
T1 sequence (P14061 1-328): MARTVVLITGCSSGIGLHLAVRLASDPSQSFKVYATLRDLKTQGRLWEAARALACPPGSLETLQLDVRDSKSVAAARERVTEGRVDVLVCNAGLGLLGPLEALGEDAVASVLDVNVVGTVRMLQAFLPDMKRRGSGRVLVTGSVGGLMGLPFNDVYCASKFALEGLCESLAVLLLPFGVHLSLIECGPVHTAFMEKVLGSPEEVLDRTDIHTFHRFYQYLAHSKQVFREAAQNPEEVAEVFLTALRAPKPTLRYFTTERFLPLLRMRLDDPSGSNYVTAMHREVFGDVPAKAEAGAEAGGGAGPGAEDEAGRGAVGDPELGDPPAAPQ
The series is described as follows: 17β-HSD1 activity assay using lysates of HEK-293 cells expressing the recombinant human enzyme. In kind it is biochemical. The following applies: for selectivity factor: 17β-HSD1 versus 17β-HSD2; for remaining activity at 20 µM: read-out: 17β-HSD1 remaining activity at 20 μM; for IC50: HEK-293 lysates, 200 nM estrone, 500 μM NADPH; for 17β-HSD1 inhibition (in words; n.i. = no inhibition): screened at 20 μM.

The nature of series [1]: Compound stability in the test system (repeated and prolonged incubation, thawing-freezing cycles). In kind it is physicochemical. Particulars: prolonged incubation, IC50 in weeks 1 and 3, thawing-freezing cycles. An excerpt: extent these PAINS should be excluded from further research. Much more data is needed to finally provide directions for the use of PAINS filters4.
Besides these general aspects of PAINS, there are of course many arguments about curcumin itself as a hit. We are aware of the compound’s many reported bioactivities observed in in vitro studies and additionally of its very poor bioavailability. However, this study is a proof of concept study identifying many natural products inhibiting 17β-HSD2 when there is direct access to the binding site and we categorize curcumin as one of them. Why? A very recent analysis of curcumin data […]
Criterion 1. Look for evidence of compound stability in assay buffer/media, including when molecular models are invoked as supporting evidence of target engagement.
We observed no significant changes in inhibition in the experimental repetition also when the incubation time was prolonged. Actually, the assay duration is only 10 minutes and the compound has direct access to the binding site when using cell […]
Criterion 2. Look for the presence of detergent and thiol-scavenging reagents in biochemical assays to mitigate the impact of chemical aggregation and nonspecific thiol reactivity. Are/were any additional counterscreens performed to rule out these phenomena? […]
reactivity would alter the enzymes activities. Also this has not been observed.

The target of another series is T2, human 17β-HSD2 (Homo sapiens, UniProt P37059).
T2 construct: expressed in transfected cells; host or cells: HEK-293 (ATCC), used as cell lysate
T2 sequence (P37059 1-387): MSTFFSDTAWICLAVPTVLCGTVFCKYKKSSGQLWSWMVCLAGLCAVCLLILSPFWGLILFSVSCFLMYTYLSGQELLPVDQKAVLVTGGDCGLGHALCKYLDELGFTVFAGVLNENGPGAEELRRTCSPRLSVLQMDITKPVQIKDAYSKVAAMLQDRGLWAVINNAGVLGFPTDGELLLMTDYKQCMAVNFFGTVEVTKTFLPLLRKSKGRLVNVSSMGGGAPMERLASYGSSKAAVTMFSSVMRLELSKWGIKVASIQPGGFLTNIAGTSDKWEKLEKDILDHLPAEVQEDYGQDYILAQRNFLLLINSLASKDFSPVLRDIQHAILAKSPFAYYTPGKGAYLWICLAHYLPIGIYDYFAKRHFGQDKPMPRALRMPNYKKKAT
The series is described as follows: 17β-HSD2 activity assay using lysates of HEK-293 cells expressing the recombinant human enzyme.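 As to all read-outs here: conversion of tritium-labelled estradiol (200 nM, with 500 µM NAD+, 10 min) quantified after TLC separation by scintillation counting, at least three independent measurements.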 In kind it is biochemical. The following applies: for IC50: HEK-293 lysates, 200 nM estradiol, 500 μM NAD+, 10 min 37 °C.

In a further series the test system is 17β-HSD. Also on record: method as in PMID 11731908. Particulars: cited from earlier work.
The test system of the next series is human ERα. Further details: method as in PMID 25106881. The following applies: reported; read-out: ERα activation EC50; cited from earlier work.

SMILES strings stand for the structures. Where two headings read alike, the source gives them in different places.

Turning to `COc1cc(/C=C/C(=O)CC(=O)/C=C/c2ccc(O)c(OC)c2)ccc1O` [compound 3, curcumin], at human 17β-HSD1, the selectivity factor entry is recorded as “∼12” and the remaining activity at 20 µM was determined as 52.2 ± 7.1%. In series [1], the “stability in the test system” value is listed as “seemed to be stable”. In addition, the “IC50 values with 0.1% Triton-X100 added, versus absence of detergent” value on human 17β-HSD2 (0.1% Triton-X100 in reaction mixture) is listed as “comparable”. In addition, on human 17β-HSD2, the IC50 was 1.73 ± 0.2 µM.

For `COc1cc(C[C@@H](C)[C@H](C)Cc2ccc(O)c(OC)c2)ccc1O` [compound 4, (−)-dihydroguaiaretic acid], the selectivity factor at human 17β-HSD1 was 8. Further, on human 17β-HSD1 (17β-HSD2 over 17β-HSD1), the “selectivity over 17β-HSD1” value is reported as not below 8 fold. The IC50 on human 17β-HSD1 was determined as 7.7 ± 2.2 µM; on human 17β-HSD2, 0.94 ± 0.02 µM. Also, in the series with 17β-HSD, the “effect on 17β-HSD activity in placenta microsomes” value is recorded as “no effects”.

On to `O=c1c(-c2ccc(O)cc2O)coc2cc(O)cc(O)c12` [compound 9, 2′-hydroxygenistein], for which the selectivity factor on human 17β-HSD1 is reported as 0.5. Also, the IC50 on human 17β-HSD1 came to 1.09 ± 0.06 µM; on human 17β-HSD2 it was 2.03 ± 0.37 µM. Further, the EC50 with human ERα is 6.1 µM. The “classification (17β-HSD2 inhibition)” value on human 17β-HSD2 (flavonoid SAR model, Table 4) is reported as “active”.

Consider `O=C(Cc1ccc(O)c(Cl)c1)NCc1ccccc1` [compound 16, N-benzyl-2-(3-chloro-4-hydroxyphenyl)acetamide], for which, on human 17β-HSD1, the “17β-HSD1 inhibition (in words; n.i. = no inhibition)” value was “n.i”. Moreover, on human 17β-HSD2, the IC50 is 3.42 ± 0.74 µM.

In the case of `O=C(Cc1ccc(O)c(Cl)c1)NCCc1c[nH]c2ccccc12` [compound 17, N-(2-(1H-indol-3-yl)ethyl)-2-(3-chloro-4-hydroxyphenyl)acetamide], the “17β-HSD1 inhibition (in words; n.i. = no inhibition)” value on human 17β-HSD1 is recorded as “n.i”. For the same molecule, on human 17β-HSD2, the IC50 came to 0.98 ± 0.24 µM.

With `O=C(Cc1ccc(O)c(Cl)c1)NCc1ccccc1Cl` [compound 18, 2-(3-chloro-4-hydroxyphenyl)-N-(2-chlorobenzyl)acetamide], the remaining activity at 20 µM on human 17β-HSD1 (20 μM compound) is 54.8 ± 5.8%. The selectivity factor entry on human 17β-HSD1 is “∼25”. The IC50 on human 17β-HSD2 is 0.78 ± 0.16 µM.
